Data from paper PMC5421785, “Citrullination only infrequently impacts peptide binding to HLA class II MHC” (PLoS ONE, 2017).
Read-outs that look alike come from different tables or passages of the source. Blank lines part the entries; values can stand above or below the molecule they belong to. Square brackets hold non-standard residues; d marks the D form. Ends that are not written are not given here. Peptide text beside a SMILES is read from it. Cit = NC(=O)NCCC[C@H](N)C(=O)O

Legend:
[1] = molecular target: T1, HLA-DRB1*01:01 (Homo sapiens, UniProt P01903+P01911, A100R/D57E/F55L/F60I/F76Y/I96L/L162R/M171V/P40L/Q125E/R42F/V115G/Y59C); assay: HLA class II peptide binding, inhibition of radiolabeled peptide binding to purified MHC
T1 construct: EBV transformed homozygous cell lines were used as sources of MHC molecules; endogenous in cells; host or cells: EBV transformed homozygous cell lines

[2] = molecular target: T2, HLA-DRB1*04:01 (Homo sapiens, UniProt P01903+P01911, A100K/A169T/F76Y/I96L/K127E/L162R/M171V/N62H/P40V/Q125Y/R42H/S133A/S149N/S66Y/V115G/V209L/W38E); assay: as above
T2 construct: EBV transformed homozygous cell lines were used as sources of MHC molecules; endogenous in cells; host or cells: EBV transformed homozygous cell lines

[3] = citrullinated 15-mer peptide (X = citrulline), purified HLA-DRB1*01:01, read-out: DRB1*01:01 binding capacity, Cit peptide (IC50 nM)
[4] = citrullinated 15-mer peptide (X = citrulline), purified HLA-DRB1*04:01, read-out: DRB1*04:01 binding capacity, Cit peptide (IC50 nM)
[5] = read-out: DRB1*01:01 binding capacity, WT peptide (IC50 nM)
[6] = read-out: DRB1*04:01 binding capacity, WT peptide (IC50 nM)
[7] = citrullinated 15-mer (X), purified MHC, inhibition of radiolabeled peptide binding, dash = IC50 >40,000 nM, read-out: DRB1*01:01 binding capacity, Cit peptide (IC50 nM)
[8] = citrullinated 15-mer (X), purified MHC, inhibition of radiolabeled peptide binding, dash = IC50 >40,000 nM, read-out: DRB1*04:01 binding capacity, Cit peptide (IC50 nM)
[9] = wild-type (unmodified Arg) 15-mer peptide, purified HLA-DRB1*01:01, read-out: DRB1*01:01 binding capacity, WT peptide (IC50 nM)
[10] = wild-type (unmodified Arg) 15-mer peptide, purified HLA-DRB1*04:01, read-out: DRB1*04:01 binding capacity, WT peptide (IC50 nM)
[11] = ratio of WT IC50 to Cit IC50, >1 = citrullination increases binding

IC50 [1, 3]: 57 nM | IC50 [2, 4]: 1070 nM
Molecule: CC[C@H](C)[C@H](NC(=O)[C@H](CC(=O)O)NC(=O)[C@H](CC(C)C)NC(=O)[C@H](C)NC(=O)[C@H](CCSC)NC(=O)[C@H](CCCCN)NC(=O)[C@@H](NC(=O)[C@H](CC(N)=O)NC(=O)[C@H](CC(C)C)NC(=O)[C@H](CC(C)C)NC(=O)[C@H](CC(=O)O)NC(=O)[C@H](CCC(N)=O)NC(=O)[C@H](Cc1ccc(O)cc1)NC(=O)[C@H](CCC(=O)O)NC(=O)[C@@H](N)CCCNC(N)=O)C(C)C)C(=O)O [XEYQDLLNVKMALDI]

IC50 [1, 5]: 1490 nM | IC50 [2, 6]: 21400 nM
Molecule: IDVDVSKPDLTAALR [Vimentin 256 WT]

IC50 [1, 7]: 2240 nM | IC50 [2, 8]: 11000 nM
Molecule: CC(C)C[C@H](NC(=O)[C@H](CCC(N)=O)NC(=O)[C@H](CC(=O)O)NC(=O)[C@@H](NC(=O)[C@H](CCC(N)=O)NC(=O)[C@H](CCCNC(N)=O)NC(=O)[C@H](CCCNC(=N)N)NC(=O)[C@H](CC(C)C)NC(=O)[C@@H](N)CCC(=O)O)C(C)C)C(=O)N[C@H](C(=O)N[C@@H](CC(N)=O)C(=O)N[C@@H](CC(=O)O)C(=O)N[C@@H](CCCCN)C(=O)N[C@@H](C)C(=O)N[C@@H](CCCNC(=N)N)C(=O)O)[C@@H](C)O [ELRXQVDQLTNDKAR] (H-ELR[Cit]QVDQLTNDKAR-OH)

IC50 [1, 9]: 15900 nM | IC50 [2, 10]: > 40000 nM
Molecule: TNESLERQMREMEEN [Vimentin 336 WT]

IC50 [1, 7]: 1070 nM | IC50 [2, 8]: 905 nM
Molecule: CC(C)C[C@H](NC(=O)[C@H](CC(N)=O)NC(=O)[C@H](CC(=O)O)NC(=O)[C@H](CCCNC(=N)N)NC(=O)[C@H](CCC(=O)O)NC(=O)[C@@H](NC(=O)[C@H](CCC(=O)O)NC(=O)[C@@H](NC(=O)[C@H](CCCNC(N)=O)NC(=O)[C@H](C)NC(=O)[C@H](CCCCN)NC(=O)[C@H](CC(=O)O)NC(=O)[C@@H](N)CC(N)=O)C(C)C)C(C)C)C(=O)N[C@@H](C)C(=O)N[C@@H](CCC(=O)O)C(=O)O [NDKAXVEVERDNLAE] (H-NDKA[Cit]VEVERDNLAE-OH)

IC50 [1, 5]: 852 nM | IC50 [2, 6]: > 40000 nM
Molecule: DIMRLREKLQEEMLQ [Vimentin 181 WT]

IC50 [1, 3]: 344 nM | IC50 [2, 4]: 2590 nM
Molecule: CC[C@H](C)[C@H](NC(=O)[C@H](CC(C)C)NC(=O)[C@H](CC(C)C)NC(=O)[C@@H](NC(=O)[C@H](CCCNC(N)=O)NC(=O)[C@H](CCCCN)NC(=O)[C@H](CO)NC(=O)[C@H](Cc1c[nH]cn1)NC(=O)[C@@H](NC(=O)[C@H](CC(=O)O)NC(=O)[C@@H](NC(=O)[C@H](CC(C)C)NC(=O)[C@@H]1CCCN1C(=O)[C@@H](N)CC(C)C)C(C)C)[C@@H](C)O)[C@@H](C)O)C(=O)N[C@@H](CCCCN)C(=O)O [LPLVDTHSKXTLLIK] (H-LPLVDTHSK[Cit]TLLIK-OH)

IC50 [1, 3]: > 40000 nM | DRB1*01:01 binding capacity, WT/cit ratio [1, 11]: 0.2 | IC50 [2, 4]: > 40000 nM | DRB1*04:01 binding capacity, WT/cit ratio [2, 11]: 1.0
Molecule: CSCC[C@H](NC(=O)[C@@H]1CCCN1C(=O)CNC(=O)[C@H](CCC(N)=O)NC(=O)[C@H](C)NC(=O)CNC(=O)[C@H](C)NC(=O)[C@H](CCC(=O)O)NC(=O)CNC(=O)[C@H](CCCNC(N)=O)NC(=O)[C@H](CC(=O)O)NC(=O)CN)C(=O)NCC(=O)N1CCC[C@H]1C(=O)N[C@@H](CO)C(=O)O [GDXGEAGAQGPMGPS] (H-GD[Cit]GEAGAQGPMGPS-OH; N-terminus and C-terminus assumed)

IC50 [1, 3]: 35 nM | IC50 [2, 4]: 6400 nM
Molecule: CC(C)C[C@H](NC(=O)CNC(=O)[C@H](C)NC(=O)[C@H](Cc1ccccc1)NC(=O)[C@H](C)NC(=O)[C@@H](N)CO)C(=O)NCC(=O)N1CCC[C@H]1C(=O)N[C@@H](CCCNC(N)=O)C(=O)N[C@@H](CCC(=O)O)C(=O)N[C@@H](CCCCN)C(=O)NCC(=O)N1CCC[C@H]1C(=O)N[C@@H](CC(=O)O)C(=O)N1CCC[C@H]1C(=O)O [SAFAGLGPXEKGPDP] (H-SAFAGLGP[Cit]EKGPDP-OH)

IC50 [1, 9]: 2240 nM | IC50 [2, 10]: 36900 nM
Molecule: DGLAGPKGAPGERGP [Collagen 521 WT]

Molecule: TVETRDGQVINETSQ [Vimentin 446 WT]
IC50 [1, 5]: 17900 nM | IC50 [2, 6]: 9590 nM
